Results taken from patent US6228872A, “Neurotrophic diamide and carbamate agents” (Bristol-Myers Squibb Company, priority 1999, dated 2001).
Like-named read-outs stand apart in the source and are kept apart here.

Key:
FKBP12 = FKBP12 (Homo sapiens, UniProt P62942); assay: FKBP12 Rotamase Inhibition Assay; type: biochemical; settings: for Ki: apparent Ki, 4° C., substrate succinyl-Ala-Leu-Pro-Phe-p-nitroanilide; for inhibition at 10 µM: read-out: % inhib. at 10 μM
Description: FKBP12 Rotamase Inhibition Assay
The rotamase activity of FKBP-12 was measured by an adaptation of the assay described by Kofron et al. (Biochemistry, 30, pp. 6127-6134 (1991)). The assay was carried out at 4° C. with 1 mg chymotrypsin/mL of assay with succinyl-Ala-Leu-Pro-Phe-p-nitroanilide as the substrate. Chymotrypsin rapidly hydrolyzes the peptide bond on the C-terminal side of the Phe of the trans form of the peptide and releases the chromogenic p-nitroaniline. The rate of the reaction is controlled by the rate of conversion of the cis form of the peptide to the trans-form, the reaction catalyzed by FKBP12. The apparent Ki values for inhibition of the rotamase activity were determined by measuring decreases in the first order rate constant of the reaction catalyzed by FKBP12 as a function of the concentrations of the compounds described herein. Ki is the concentration of the compound that causes 50 percent inhibition of rotamase activity which is indicative of neurite outgrowth activity.

HIV-infected cells = settings: cited from earlier work
[1] = in vitro and in vivo; cited from earlier work
[2] = Table 3, 1 μM, read-out: % rotamase inhib. at 1 μM
[3] = Table 4, 1 μM, read-out: % rotamase inhib. at 1 μM
[4] = Table 2, 1 μM (values marked *), read-out: % inhib. at 1 μM*

Chain of FKBP12 (P62942 whole entry, species assumed): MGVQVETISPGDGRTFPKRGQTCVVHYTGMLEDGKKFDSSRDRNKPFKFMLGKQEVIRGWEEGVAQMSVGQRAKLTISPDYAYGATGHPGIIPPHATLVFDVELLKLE

With `COc1cc(C(F)(F)C(=O)N2CCC[C@H]2COC(=O)N(CCCc2ccc(C(=O)OCc3ccccc3)cc2)CCCc2cccnc2)cc(OC)c1OC` [Example 36, N-(3,4,5-Trimethoxyphenyl)-difluoroacetyl-L-pyrrolidinylmethyl-[N',N'-3-(3-pyridyl)propyl-3-(4-benzyloxycarbonylphenyl)propylamino]carbamate] the inhibition at 1 µM (FKBP12; [2]) was 77%.

With `COc1cc(C(F)(F)C(=O)N2CCC[C@H]2CCC(=O)N(CCCc2ccccc2)CCCc2cccnc2)cc(OC)c1OC` [Example 45, N,N-(3-Phenylpropyl)-3-(3-pyridyl)propyl-2-[(S)-N'-(3,4,5-Trimethoxyphenyl)-difluoroacetyl-2-pyrrolidinyl]propionamide] the inhibition at 1 µM (FKBP12; [3]) was 42%.

`COc1cc(C(F)(F)C(=O)N2CCC[C@H]2COC(=O)N(CCCCc2ccccc2)CCCCc2cccnc2)cc(OC)c1OC` [Example 22, N-(3,4,5-Trimethoxyphenyl)-difluoroacetyl-L-pyrrolidinylmethyl-[N',N'-4-(3-pyridyl)butyl-4-phenylbutylamino]carbamate] showed an inhibition at 1 µM (FKBP12; [4]) of 83% and a Ki (FKBP12; Table 2) of 271 nM.

`COc1cc(C(=O)C(=O)N2CCC[C@H]2COC(=O)N(CCCCc2ccccc2)CCCCc2cccnc2)cc(OC)c1OC` [Example 10, N-(3,4,5-Trimethoxyphenyl)oxalyl-L-pyrrolidinylmethyl-[N',N'-4-(3-pyridyl)butyl-4-phenylbutylamino]carbamate] showed an inhibition at 1 µM (FKBP12; [4]) of 52%.

Work on `COc1cc(C(=O)C(=O)N2CCC[C@H]2COC(=O)N(CCCc2cccnc2)CCc2ccccc2)cc(OC)c1OC` [Example 12, N-(3,4,5-Trimethoxyphenyl)oxalyl-L-pyrrolidinylmethyl-[N',N'-3-(3-pyridyl)propyl-2-phenylethylamino]carbamate] yielded an inhibition at 10 µM (FKBP12; Table 2) of 80%.

`COc1cc(C(=O)C(=O)N2CCC[C@H]2COC(=O)N(CCCCc2ccccc2)CCCc2cccnc2)cc(OC)c1OC` [Example 11, N-(3,4,5-Trimethoxyphenyl)oxalyl-L-pyrrolidinylmethyl-[N',N'-3-(3-pyridyl)propyl-4-phenylbutylamino]carbamate] gave an inhibition at 10 µM (FKBP12; Table 2) of 96% and a Ki (FKBP12; Table 2) of 537 nM.

In the case of `CC(C)(C)C(=O)C(=O)N1CCC[C@H]1COC(=O)NCCc1ccccc1` [Example 5, N-Trimethylpyruvyl-L-pyrrolidinylmethyl-[N'-2-phenylethylamino]carbamate], the inhibition at 10 µM (FKBP12; Table 1) is reported as 0%.

Compound `COc1cc(C(F)(F)C(=O)N2CCC[C@H]2COC(=O)N(CCCc2ccccc2)CCCc2cccnc2)cc(OC)c1OC` [Example 23, N-(3,4,5-Trimethoxyphenyl)-difluoroacetyl-L-pyrrolidinylmethyl-[N',N'-3-(3-pyridyl)propyl-3-phenylpropylamino]carbamate] has an inhibition at 10 µM (FKBP12; Table 2) of 98% and a Ki (FKBP12; Table 2) of 113 nM.

For `CC(C)(C)C(=O)C(=O)N1CCC[C@H]1COC(=O)N(CCc1ccccc1)Cc1ccccc1` [Example 3, N-Trimethylpyruvyl-L-pyrrolidinylmethyl-[N',N'-2-phenylethyl-benzylamino]carbamate], the inhibition at 10 µM (FKBP12; Table 1) was 39%.

Work on `COc1cc(C(F)(F)C(=O)N2CCC[C@H]2COC(=O)N(CCCCc2ccccc2)CCCc2cccnc2)cc(OC)c1OC` [Example 26, N-(3,4,5-Trimethoxyphenyl)-difluoroacetyl-L-pyrrolidinylmethyl-[N',N'-3-(3-pyridyl)propyl-4-phenylbutylamino]carbamate] yielded an inhibition at 10 µM (FKBP12; Table 2) of 99% and a Ki (FKBP12; Table 2) of 158 nM.

`COc1cc(C(F)(F)C(=O)N2CCC[C@H]2COC(=O)N(CCCc2cccnc2)Cc2ccccc2)cc(OC)c1OC` [Example 28, N-(3,4,5-Trimethoxyphenyl)-difluoroacetyl-L-pyrrolidinylmethyl-[N',N'-3-(3-pyridyl)propyl-benzylamino]carbamate] gave an inhibition at 10 µM (FKBP12; Table 2) of 99% and a Ki (FKBP12; Table 2) of 577 nM.

For `COc1cc(C(=O)C(=O)N2CCC[C@H]2COC(=O)N(CCCCc2cccnc2)CCCc2ccccc2)cc(OC)c1OC` [Example 14, N-(3,4,5-Trimetboxyphenyl)oxalyl-L-pyrrolidinylmethyl-[N',N'-4-(3-pyridyl)butyl-3-phenylpropylamino]carbamate], the inhibition at 1 µM (FKBP12; [4]) was 54%.

In the case of `CC(C)(C)C(=O)C(=O)N1CCC[C@H]1COC(=O)N(CCCc1ccccc1)CCCc1cccnc1` [Example 1, N-Trimethylpyruvyl-L-pyrrolidinylmethyl-[N',N'-3-(3-pyridyl)propyl-3-phenylpropylamino]carbamate], the inhibition at 10 µM (FKBP12; Table 1) is reported as 93%.

Compound `CC(C)(C)C(=O)C(=O)N1CCC[C@H]1COC(=O)N(Cc1ccccc1)Cc1ccccc1` [Example 2, N-Trimethylpyruvyl-L-pyrrolidinylmethyl-[N',N'-dibenzylamino]carbamate] has an inhibition at 10 µM (FKBP12; Table 1) of 27%.

With `COc1cc(C(=O)C(=O)N2CCC[C@H]2COC(=O)N(CCCCc2cccnc2)CCc2ccccc2)cc(OC)c1OC` [Example 15, N-(3,4,5-Trimethoxyphenyl)oxalyl-L-pyrrolidinylmethyl-[N',N'-4-(3-pyridyl)butyl-2-phenylethylamino]carbamate] the inhibition at 10 µM (FKBP12; Table 2) was 82%.

`COc1cc(C(F)(F)C(=O)N2CCC[C@H]2COC(=O)N(CCCCc2cccnc2)CCc2ccccc2)cc(OC)c1OC` [Example 30, N-(3,4,5-Trimethoxyphenyl)-difluoroacetyl-L-pyrrolidinylmethyl-[N',N'-4-(3-pyridyl)butyl-2-phenylethylamino]carbamate] gave an inhibition at 10 µM (FKBP12; Table 2) of 97%.

`COc1cc(C(=O)C(=O)N2CCC[C@H]2CCC(=O)N(CCCc2ccccc2)CCCc2cccnc2)cc(OC)c1OC` [Example 21, N,N-(3-Phenylpropyl)-3-(3-pyridyl)propyl-2-[(S)-N'-(3,4,5-trimethoxyphenyl)oxalyl-2-pyrrolidinyl]propionamide] gave an inhibition at 1 µM (FKBP12; [3]) of 1%.

With `COc1cc(C(F)(F)C(=O)N2CCCCC2COC(=O)N(CCCCc2ccccc2)CCCc2cccnc2)cc(OC)c1OC` (racemic) [Example 43] the inhibition at 1 µM (FKBP12; [4]) was 0%.

Work on `COc1cc(CCCN(CCCc2cccnc2)C(=O)OC[C@@H]2CCCN2C(=O)C(=O)c2cc(OC)c(OC)c(OC)c2)cc(OC)c1OC` [Example 18, N-(3,4,5-Trimethoxyphenyl)oxalyl-L-pyrrolidinylmethyl-[N',N'-3-(3-pyridyl)propyl-3-(3,4,5-trimethoxyphenyl)propylamino]carbamate] yielded an inhibition at 1 µM (FKBP12; [2]) of 68%.

With `COc1cc(C(=O)C(=O)N2CCC[C@H]2COC(=O)NCCc2ccccc2)cc(OC)c1OC` [Example 9, N-(3,4,5-Trimethoxyphenyl)oxalyl-L-pyrrolidinylmethyl-[N'-2-phenylethylamino]carbamate] the inhibition at 10 µM (FKBP12; Table 1) was 11%.

In the case of `C=CC[C@@H]1/C=C(\C)C[C@H](C)C[C@H](OC)[C@H]2O[C@@](O)(C(=O)C(=O)N3CCCC[C@H]3C(=O)O[C@H](/C(C)=C/[C@@H]3CC[C@@H](O)[C@H](OC)C3)[C@H](C)[C@@H](O)CC1=O)[C@H](C)C[C@@H]2OC` [FK506], the “inhibition of growth of HIV-infected cells” value (HIV-infected cells) is listed as “inhibits the growth of HIV-infected cells” and the neurotrophic properties [1] is listed as “possess neurotrophic properties in vitro and in vivo”.

With `COc1cccc(CCCN(CCCc2cccnc2)C(=O)OC[C@@H]2CCCN2C(=O)C(=O)c2cc(OC)c(OC)c(OC)c2)c1` [Example 17, N-(3,4,5-Trimethoxyphenyl)oxalyl-L-pyrrolidinylmethyl-[N',N'-3-(3-pyridyl)propyl-3-(3-methoxyphenyl)propylamino]carbamate] the inhibition at 1 µM (FKBP12; [2]) was 75%.

Work on `COc1ccc(CCCN(CCCc2cccnc2)C(=O)OC[C@@H]2CCCN2C(=O)C(F)(F)c2cc(OC)c(OC)c(OC)c2)cc1` [Example 38, N-(3,4,5-Trimethoxyphenyl)-difluoroacetyl-L-pyrrolidinylmethyl-[N',N'-3-(3-pyridyl)propyl-3-(4-methoxyphenyl)propylamino]carbamate] yielded an inhibition at 1 µM (FKBP12; [2]) of 95%.
